Assay results: ChEMBL document CHEMBL5465560, “Selectivity Literature for EUbOPEN Chemogenomic Library” (2024)
Each block holds one molecule with its values, some of them ahead of it.

Experiments:
[1] = molecular target: T1, Mitogen-activated protein kinase kinase kinase 5 (Homo sapiens) (UniProt Q99683); assay: Selectivity interaction (ActivX KiNativ screen (kinase selectivity in THP-1 cell lysates)) EUB0000639a MAP3K5; format: subcellular; settings: lysate, at 0.01 µM
T1 sequence (whole entry): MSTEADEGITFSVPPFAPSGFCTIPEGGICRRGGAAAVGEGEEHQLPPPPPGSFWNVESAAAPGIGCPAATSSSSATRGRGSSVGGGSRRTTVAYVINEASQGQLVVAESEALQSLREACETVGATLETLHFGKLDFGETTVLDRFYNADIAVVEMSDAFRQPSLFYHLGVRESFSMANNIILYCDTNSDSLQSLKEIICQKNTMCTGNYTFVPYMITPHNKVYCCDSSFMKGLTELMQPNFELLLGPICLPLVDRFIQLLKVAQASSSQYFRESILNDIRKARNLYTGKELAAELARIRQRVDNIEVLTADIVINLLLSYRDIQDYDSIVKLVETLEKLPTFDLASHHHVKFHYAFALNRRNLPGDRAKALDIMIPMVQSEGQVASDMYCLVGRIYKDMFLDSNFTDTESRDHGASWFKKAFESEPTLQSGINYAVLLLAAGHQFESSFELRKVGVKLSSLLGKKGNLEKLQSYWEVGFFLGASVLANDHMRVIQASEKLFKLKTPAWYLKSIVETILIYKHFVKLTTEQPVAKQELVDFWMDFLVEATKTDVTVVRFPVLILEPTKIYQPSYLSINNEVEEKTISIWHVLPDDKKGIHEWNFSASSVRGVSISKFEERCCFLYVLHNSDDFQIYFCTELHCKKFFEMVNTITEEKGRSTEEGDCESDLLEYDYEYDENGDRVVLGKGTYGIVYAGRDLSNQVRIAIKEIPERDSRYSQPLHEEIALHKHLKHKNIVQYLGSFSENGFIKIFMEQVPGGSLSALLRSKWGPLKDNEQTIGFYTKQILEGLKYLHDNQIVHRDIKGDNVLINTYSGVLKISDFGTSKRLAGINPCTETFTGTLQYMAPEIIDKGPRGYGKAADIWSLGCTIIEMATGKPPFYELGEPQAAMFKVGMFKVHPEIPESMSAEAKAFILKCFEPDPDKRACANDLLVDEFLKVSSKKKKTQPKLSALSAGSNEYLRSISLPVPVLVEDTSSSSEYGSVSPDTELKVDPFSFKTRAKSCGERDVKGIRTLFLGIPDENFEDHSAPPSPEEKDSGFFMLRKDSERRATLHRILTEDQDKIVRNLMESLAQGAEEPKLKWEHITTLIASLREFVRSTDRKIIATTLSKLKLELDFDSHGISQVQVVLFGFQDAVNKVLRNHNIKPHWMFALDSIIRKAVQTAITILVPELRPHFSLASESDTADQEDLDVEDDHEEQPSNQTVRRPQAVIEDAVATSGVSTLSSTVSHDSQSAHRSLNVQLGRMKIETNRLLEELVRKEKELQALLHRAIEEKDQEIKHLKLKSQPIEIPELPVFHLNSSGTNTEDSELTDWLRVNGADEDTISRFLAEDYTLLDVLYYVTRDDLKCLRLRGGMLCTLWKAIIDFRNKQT

[2] = molecular target: T1, Mitogen-activated protein kinase kinase kinase 5 (Homo sapiens); assay: Selectivity interaction (LanthaScreen Eu Kinase Binding Assay) EUB0001632a MAP3K5; settings: at 10 µM
[3] = molecular target: Prostacyclin receptor (Homo sapiens) (UniProt P43119); assay: Selectivity interaction (Eurofins CEREP Diversity Profile (receptors and ion channels)) EUB0000279b PTGIR; settings: at 10 µM
[4] = molecular target: Casein kinase I isoform gamma-1 (Homo sapiens) (UniProt Q9HCP0); assay: Selectivity interaction (KinomeScan (DiscoverX)) EUB0001079a CSNK1G1; settings: at 1 µM
[5] = molecular target: T2, Ephrin type-B receptor 4 (Homo sapiens) (UniProt P54760); assay: Selectivity interaction (KinomeScan (DiscoverX)) EUB0000092b EPHB4; settings: at 10 µM
T2 sequence (whole entry): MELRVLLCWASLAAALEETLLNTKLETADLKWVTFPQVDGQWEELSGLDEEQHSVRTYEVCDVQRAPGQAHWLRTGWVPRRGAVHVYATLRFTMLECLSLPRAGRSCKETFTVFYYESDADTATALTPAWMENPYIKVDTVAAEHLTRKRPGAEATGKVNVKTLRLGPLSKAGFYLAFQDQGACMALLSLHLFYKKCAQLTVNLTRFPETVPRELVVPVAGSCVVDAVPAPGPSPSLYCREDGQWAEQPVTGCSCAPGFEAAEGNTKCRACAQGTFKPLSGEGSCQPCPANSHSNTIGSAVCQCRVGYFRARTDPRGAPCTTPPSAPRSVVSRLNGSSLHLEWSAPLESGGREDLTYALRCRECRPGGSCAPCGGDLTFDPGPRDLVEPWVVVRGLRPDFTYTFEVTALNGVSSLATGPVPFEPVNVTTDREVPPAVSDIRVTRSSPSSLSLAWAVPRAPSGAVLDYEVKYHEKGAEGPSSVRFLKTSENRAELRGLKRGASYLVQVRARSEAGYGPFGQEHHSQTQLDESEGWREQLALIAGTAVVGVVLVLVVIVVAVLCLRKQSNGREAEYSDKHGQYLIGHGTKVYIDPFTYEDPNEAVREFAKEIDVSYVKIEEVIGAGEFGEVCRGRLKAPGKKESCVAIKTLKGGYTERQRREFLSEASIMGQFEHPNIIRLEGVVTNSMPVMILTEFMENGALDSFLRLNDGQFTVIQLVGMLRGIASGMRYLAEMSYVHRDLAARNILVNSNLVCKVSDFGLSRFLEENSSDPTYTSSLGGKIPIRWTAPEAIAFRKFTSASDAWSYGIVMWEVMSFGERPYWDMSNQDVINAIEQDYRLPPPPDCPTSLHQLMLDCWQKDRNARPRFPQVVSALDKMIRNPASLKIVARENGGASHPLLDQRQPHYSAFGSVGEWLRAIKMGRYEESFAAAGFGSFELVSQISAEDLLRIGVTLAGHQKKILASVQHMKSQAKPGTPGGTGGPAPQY

[6] = molecular target: Serine/threonine-protein kinase MRCK alpha (Homo sapiens) (UniProt Q5VT25); assay: Selectivity interaction (KinomeScan (DiscoverX)) EUB0000092b CDC42BPA; settings: at 10 µM
[7] = molecular target: Proto-oncogene tyrosine-protein kinase receptor Ret (Homo sapiens, UniProt P07949); assay: Selectivity interaction (Upstate Kinase Profiler service (Millipore)) EUB0000056c RET; settings: at 1 µM
[8] = molecular target: Serine/threonine-protein kinase SIK1 (Homo sapiens) (UniProt P57059); assay: Selectivity interaction (KinomeScan (DiscoverX)) EUB0001619a SIK1; settings: at 1 µM
[9] = molecular target: Vascular endothelial growth factor receptor 1 (Homo sapiens) (UniProt P17948); assay: Selectivity interaction (KinomeScan (DiscoverX)) EUB0000618a FLT1; settings: at 10 µM
Sequence of Vascular endothelial growth factor receptor 1 (Homo sapiens) (P17948 whole entry): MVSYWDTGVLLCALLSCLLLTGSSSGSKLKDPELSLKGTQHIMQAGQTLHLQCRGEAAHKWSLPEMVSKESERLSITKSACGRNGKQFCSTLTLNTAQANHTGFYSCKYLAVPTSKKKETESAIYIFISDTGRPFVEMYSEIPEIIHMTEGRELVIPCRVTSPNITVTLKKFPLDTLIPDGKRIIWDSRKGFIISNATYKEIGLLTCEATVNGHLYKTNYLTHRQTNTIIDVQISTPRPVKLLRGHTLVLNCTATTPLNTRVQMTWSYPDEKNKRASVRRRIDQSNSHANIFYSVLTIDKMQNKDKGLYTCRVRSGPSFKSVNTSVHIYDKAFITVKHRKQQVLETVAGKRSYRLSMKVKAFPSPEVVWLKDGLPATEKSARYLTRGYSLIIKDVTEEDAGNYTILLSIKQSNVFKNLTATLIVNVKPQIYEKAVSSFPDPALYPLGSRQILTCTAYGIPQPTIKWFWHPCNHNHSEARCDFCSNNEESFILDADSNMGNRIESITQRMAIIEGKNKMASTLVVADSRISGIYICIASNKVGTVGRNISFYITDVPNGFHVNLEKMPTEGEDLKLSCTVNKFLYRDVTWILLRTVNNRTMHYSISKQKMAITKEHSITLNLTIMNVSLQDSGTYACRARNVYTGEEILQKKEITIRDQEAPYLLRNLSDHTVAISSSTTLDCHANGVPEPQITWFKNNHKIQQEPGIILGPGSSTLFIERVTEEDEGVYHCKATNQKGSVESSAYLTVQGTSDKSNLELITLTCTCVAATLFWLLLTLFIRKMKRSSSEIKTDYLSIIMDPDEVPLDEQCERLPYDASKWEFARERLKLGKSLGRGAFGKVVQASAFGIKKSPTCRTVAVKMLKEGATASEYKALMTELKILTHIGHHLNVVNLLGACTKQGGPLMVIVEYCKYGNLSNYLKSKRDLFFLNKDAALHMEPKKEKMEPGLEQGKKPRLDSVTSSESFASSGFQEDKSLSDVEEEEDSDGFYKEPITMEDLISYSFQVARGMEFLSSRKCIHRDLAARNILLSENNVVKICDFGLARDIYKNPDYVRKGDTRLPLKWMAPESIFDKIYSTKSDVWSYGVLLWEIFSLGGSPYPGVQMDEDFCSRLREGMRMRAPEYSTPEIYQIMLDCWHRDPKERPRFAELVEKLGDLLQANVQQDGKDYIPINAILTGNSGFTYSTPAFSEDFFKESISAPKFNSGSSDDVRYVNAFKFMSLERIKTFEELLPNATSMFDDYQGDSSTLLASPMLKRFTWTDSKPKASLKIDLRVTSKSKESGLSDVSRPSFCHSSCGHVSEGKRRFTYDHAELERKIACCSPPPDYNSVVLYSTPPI

Sequence of Prostacyclin receptor (Homo sapiens) (P43119 whole entry, canonical isoform): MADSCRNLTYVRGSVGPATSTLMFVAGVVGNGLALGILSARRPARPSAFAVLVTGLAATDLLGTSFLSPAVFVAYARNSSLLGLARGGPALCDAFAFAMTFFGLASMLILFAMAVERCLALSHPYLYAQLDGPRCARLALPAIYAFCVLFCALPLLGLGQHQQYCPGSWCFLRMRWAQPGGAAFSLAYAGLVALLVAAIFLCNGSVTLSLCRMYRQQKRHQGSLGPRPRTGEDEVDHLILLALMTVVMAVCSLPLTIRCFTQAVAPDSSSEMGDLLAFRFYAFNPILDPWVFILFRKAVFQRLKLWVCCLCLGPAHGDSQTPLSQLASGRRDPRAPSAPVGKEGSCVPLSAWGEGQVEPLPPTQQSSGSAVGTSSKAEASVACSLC
Sequence of Serine/threonine-protein kinase SIK1 (Homo sapiens) (P57059 whole entry): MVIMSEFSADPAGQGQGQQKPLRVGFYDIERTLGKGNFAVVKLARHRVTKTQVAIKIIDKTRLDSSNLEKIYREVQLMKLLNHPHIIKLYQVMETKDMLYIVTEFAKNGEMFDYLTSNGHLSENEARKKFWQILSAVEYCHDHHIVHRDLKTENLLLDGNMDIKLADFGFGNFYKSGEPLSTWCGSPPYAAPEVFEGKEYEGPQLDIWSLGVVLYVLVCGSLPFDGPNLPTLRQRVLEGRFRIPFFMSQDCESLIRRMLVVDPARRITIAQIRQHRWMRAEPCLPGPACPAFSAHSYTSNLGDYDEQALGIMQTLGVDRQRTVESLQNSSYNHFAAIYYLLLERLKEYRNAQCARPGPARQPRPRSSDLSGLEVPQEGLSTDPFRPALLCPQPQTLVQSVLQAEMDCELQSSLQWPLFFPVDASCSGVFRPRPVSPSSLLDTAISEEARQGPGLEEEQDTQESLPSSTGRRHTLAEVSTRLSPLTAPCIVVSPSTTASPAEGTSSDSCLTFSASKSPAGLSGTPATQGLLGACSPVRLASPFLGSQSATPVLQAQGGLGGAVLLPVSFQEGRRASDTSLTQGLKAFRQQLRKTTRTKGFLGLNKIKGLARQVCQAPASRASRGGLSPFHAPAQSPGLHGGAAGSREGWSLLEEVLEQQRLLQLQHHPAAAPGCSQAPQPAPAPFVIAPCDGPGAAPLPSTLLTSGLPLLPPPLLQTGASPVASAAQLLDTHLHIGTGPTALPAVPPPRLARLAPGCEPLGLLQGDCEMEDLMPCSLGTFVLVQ
Sequence of Casein kinase I isoform gamma-1 (Homo sapiens) (Q9HCP0 whole entry, looked up, canonical isoform): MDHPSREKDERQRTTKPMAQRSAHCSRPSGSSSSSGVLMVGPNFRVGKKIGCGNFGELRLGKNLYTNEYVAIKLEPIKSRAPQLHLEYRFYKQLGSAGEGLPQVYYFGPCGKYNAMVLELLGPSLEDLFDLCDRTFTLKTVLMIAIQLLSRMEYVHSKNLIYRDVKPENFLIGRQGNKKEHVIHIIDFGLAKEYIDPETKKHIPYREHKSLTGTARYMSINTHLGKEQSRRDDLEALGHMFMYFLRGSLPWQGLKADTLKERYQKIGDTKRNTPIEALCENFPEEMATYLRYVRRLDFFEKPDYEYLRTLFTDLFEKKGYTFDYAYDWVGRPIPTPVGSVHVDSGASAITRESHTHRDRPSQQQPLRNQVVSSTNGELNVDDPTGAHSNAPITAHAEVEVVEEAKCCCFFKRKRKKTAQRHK
Sequence of Serine/threonine-protein kinase MRCK alpha (Homo sapiens) (Q5VT25 whole entry): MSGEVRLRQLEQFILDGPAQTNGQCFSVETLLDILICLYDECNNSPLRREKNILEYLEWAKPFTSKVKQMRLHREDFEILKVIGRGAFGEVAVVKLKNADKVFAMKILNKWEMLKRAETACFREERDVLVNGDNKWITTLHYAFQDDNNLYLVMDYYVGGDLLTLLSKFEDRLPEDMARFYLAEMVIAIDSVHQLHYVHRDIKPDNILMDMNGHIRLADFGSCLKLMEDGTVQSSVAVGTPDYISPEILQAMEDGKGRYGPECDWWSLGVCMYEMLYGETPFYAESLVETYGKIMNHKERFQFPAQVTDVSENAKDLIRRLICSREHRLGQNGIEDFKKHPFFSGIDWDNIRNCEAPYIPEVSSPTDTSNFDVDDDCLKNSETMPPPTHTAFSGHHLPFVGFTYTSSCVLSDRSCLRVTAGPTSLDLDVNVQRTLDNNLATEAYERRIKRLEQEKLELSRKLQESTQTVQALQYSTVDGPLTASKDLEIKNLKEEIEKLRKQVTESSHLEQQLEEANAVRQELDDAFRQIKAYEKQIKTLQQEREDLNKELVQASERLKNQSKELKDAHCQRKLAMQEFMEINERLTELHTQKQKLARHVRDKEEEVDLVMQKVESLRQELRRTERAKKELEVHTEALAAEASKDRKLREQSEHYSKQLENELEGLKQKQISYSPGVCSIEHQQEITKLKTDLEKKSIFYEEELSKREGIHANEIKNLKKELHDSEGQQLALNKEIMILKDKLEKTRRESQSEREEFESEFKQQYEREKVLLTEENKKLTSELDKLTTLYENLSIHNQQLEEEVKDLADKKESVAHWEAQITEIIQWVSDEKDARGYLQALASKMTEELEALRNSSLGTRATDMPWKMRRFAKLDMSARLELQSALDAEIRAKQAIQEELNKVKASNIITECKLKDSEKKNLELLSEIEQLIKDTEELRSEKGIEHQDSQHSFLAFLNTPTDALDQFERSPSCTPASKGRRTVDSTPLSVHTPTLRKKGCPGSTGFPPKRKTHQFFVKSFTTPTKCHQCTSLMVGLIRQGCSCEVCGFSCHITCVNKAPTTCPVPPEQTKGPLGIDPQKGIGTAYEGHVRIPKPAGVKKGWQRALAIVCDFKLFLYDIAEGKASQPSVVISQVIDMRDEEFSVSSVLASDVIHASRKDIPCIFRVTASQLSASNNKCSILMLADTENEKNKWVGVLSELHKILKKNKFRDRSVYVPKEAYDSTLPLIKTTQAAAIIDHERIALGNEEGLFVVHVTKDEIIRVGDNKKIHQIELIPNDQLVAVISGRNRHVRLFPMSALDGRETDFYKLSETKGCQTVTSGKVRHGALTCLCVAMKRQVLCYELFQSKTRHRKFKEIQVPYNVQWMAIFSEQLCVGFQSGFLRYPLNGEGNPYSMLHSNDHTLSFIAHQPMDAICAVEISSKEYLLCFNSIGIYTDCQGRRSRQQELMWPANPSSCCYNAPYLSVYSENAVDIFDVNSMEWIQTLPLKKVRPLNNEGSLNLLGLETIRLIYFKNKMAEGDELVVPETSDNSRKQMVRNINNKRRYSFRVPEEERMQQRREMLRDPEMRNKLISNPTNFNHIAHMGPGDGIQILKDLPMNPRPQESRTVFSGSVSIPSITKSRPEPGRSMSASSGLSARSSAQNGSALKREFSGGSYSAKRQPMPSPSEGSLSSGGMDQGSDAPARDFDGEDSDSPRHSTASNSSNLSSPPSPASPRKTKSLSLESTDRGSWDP

% of inhibition [1]: -5.8%
Structure (SMILES): CC[C@@H]1[C@H](F)C(=O)N[C@@H]1COc1nccc2cc(C(N)=O)c(OC)cc12 [ZIMLOVISERTIB]

% of inhibition [2]: -14.2%
Structure (SMILES): Cn1cc(-n2cnc3c(NCc4nc5cc(Cl)c(Cl)cc5[nH]4)nc(N4CCOCC4)nc32)cn1

% of control [3]: 108%
Structure (SMILES): CC(=O)c1cc(-c2ccccc2OCC2CC2)c2ncccn12

Structure (SMILES): Nc1cnc(N2CCc3cc(S(=O)(=O)Nc4c(F)cc(Cl)cc4F)cc(N4CCCC4=O)c32)nc1 [TP-020n]
% of control [4]: 97%

Structure (SMILES): CCC(=O)N1CCN(c2ccc(-n3c(=O)ccc4cnc5ccc(-c6cnc7ccccc7c6)cc5c43)cc2C(F)(F)F)CC1
% of control [5]: 85%
% of control [6]: 0.7%

% of inhibition [7]: 46%
Structure (SMILES): Cc1ccc(-c2ccc3c(ccc4sc5c(c43)NC[C@@H](C)NC5=O)n2)cn1

Structure (SMILES): N#Cc1cccc(-c2c[nH]c3ncnc(N4CCOCC4)c23)c1
% of control [8]: 84%

Structure (SMILES): O[C@H]1CC[C@H](Nc2ncc3nc(Nc4c(F)cc(F)cc4F)n([C@H]4CCOC4)c3n2)CC1
% of control [9]: 86%
